Data on 7 molecules can be found in patent US12466849B2, “Anti-viral and anti-tumoral compounds” (YEDA RESEARCH AND DEVELOPMENT CO. LTD, priority 2020, dated 2025).

In brackets after ≈: the same amount, converted by molar mass. Where two headings read alike, the source gives them in different places.

In series [1] the target is T1, SARS-Cov2 RdRp (nsp12-nsp7-nsp8) (Severe acute respiratory syndrome coronavirus 2, UniProt P0DTD1). The format is biochemical. Particulars: primer extension; analog at 100 uM, printed 100 mM.
The target in series [2] is T1, SARS-Cov2 RdRp (nsp12-nsp7-nsp8). Type of series: biochemical. As to conditions: after addition of GTP and CTP (third and fourth nucleotides).
A short description of series [3]: Liver (hepatic) S9 stability, rat.
Series [4] in a line: Liver (hepatic) S9 stability, human.
The next series concerns MERS-CoV (EMC). The format is cell-based. Particulars: SI = CC50/EC50.
The subject of series [5] is Epstein-Barr virus (EBV), Akata strain. On the set-up: SI50 / SI90: unit not given beside the values.
In series [6] the test system is BK virus (BKV), Gardner strain. Also on record: SI50 / SI90: unit not given beside the values.
Series [7] deals with SARS-CoV-2 (USA-WA1/2020).
The test system of series [8] is influenza/California/07/2009 (H1N1)pdm09.
Series [9] relates to Influenza B/Florida/4/2006 (Yamagata).
Series [10] deals with enterovirus-68 (EV-68, US/DY/14-18953).
Series [11] has as its system respiratory syncytial virus (RSV, A2).
The subject of series [12] is Tacaribe virus (TCRV, TRVL-11573). Also on record: SI50 (SI): unit not given beside the values.
The test system of series [13] is dengue virus-2 (DENV-2, New Guinea C). As to conditions: SI = CC50/EC50.
Series [14] has as its system enterovirus-68 (EV-68).
In series [15] the test system is enterovirus-68 (EV-68). Kind of series: organism not typed. Particulars: RD, read-out: EQ50.
Another series concerns HCMV AD169. Kind of series: HCMV plaque reduction assay, MRC-5 cells, strain AD169. The format is cell-based, Human cytomegalovirus. Particulars: hCMV AD169, MRC5 cells, plaque assay, 6-days duration. Background: In a plaque reduction assay, fewer plaques than in the control indicate reduced infectivity or spread.
Series [16] deals with Rift Valley fever virus (RVFV).
Series [17] deals with Japanese encephalitis virus (JEV).
For series [18], the system named is Venezuelan equine encephalitis virus (VEEV).
Setting [19] is: Vero 76 cells without virus, test compounds.

`Nc1nc2c(ncn2[C@@H]2OC(COP(=O)(O)OP(=O)(O)OP(=O)(O)O)=C[C@H]2O)c(=O)[nH]1` [ddhGTP, 3′-deoxy-3′,4′-didehydro-guanosine-triphosphate]: the “incorporation into RNA by SARS-Cov2 RdRp (in words)” value in series [1] is given as “incorporates onto RNA as GTP analog”. For the same molecule, in series [2], the “chain termination of RNA synthesis (in words)” value is “caused chain termination of RNA synthesis”.
On the same counts, the results for `N#C[C@@]1(c2ccc3c(N)ncnn23)O[C@H](COP(=O)(O)OP(=O)(O)OP(=O)(O)O)[C@@H](O)[C@H]1O` [REM-TP, Remdesivir-TP, reference compound] are “incorporated into RNA as ATP analogs” and “did not cause chain termination”.
For the molecule `COc1ccc2c(c1)[C@]13CCCC[C@@H]1[C@H](C2)N(C)CC3` [Dextromethorphan], the CLhep in [3] (predicted from S9 CLint (well-stirred model)) is given as 37.2 mL/min/kg; in series [4] (human, predicted from S9 CLint (well-stirred model)), 14.3 mL/min/kg. Besides, the half-life at 1 μM in [3] (s9) stood at 58.8 min. Besides, the microsomal CLint at 1 μM in series [3] (s9) turned out to be 23.6 µL/min/mg; in series [4] (human, s9), 14.7 µL/min/mg. The T1/2 in series [4] (human liver S9, 0.5 mg/mL, NADPH incubation (Table 24 gives without NADPH)) is recorded as 94.0 min.
Consider `CC(C)(C)C(=O)SCCOP(=O)(OCCSC(=O)C(C)(C)C)OCC1=CC(O)C(n2cnc3c(=O)[nH]c(N)nc32)O1` (centres unmarked) [SATE-ddhG], for which the “SI50 (SI)” value in the series with MERS-CoV (EMC) was 0; in series [7] (SARS-CoV-2, SI = CC50/EC50), 0; in series [8] (Influenza(H1N1), SI = CC50/EC50), 0; in series [9] (Influenza B, SI = CC50/EC50), 0; in series [10] (EV-68, SI = CC50/EC50), 0; in series [11] (RSV, SI = CC50/EC50), 0. Besides, the “SI50 (SI)” value in series [12] and in series [13] was 0 in each case. Moreover, the Activity entry is “HI (key: NA (Not Active) SI50 = 0-3.9; MOD (Moderately Active) SI50 = 4-9.9; HI (Highly Active) SI50 = ≥10)” in series [5] and “HI (key: NA (Not Active) SI50 = 0-3.9; LO (Slightly Active) SI50 = 4-9.9; MOD (Moderately Active) SI50 = 10-19.9; HI (Highly Active) SI50 = ≥20)” in series [6]. In addition, the CC50 in series [5] is 106 µM; in series [6], more than 150 µM; in [7] it was more than 1000 µM; in [8], more than 1000 µM; in series [9], more than 1000 µM; in series [10], 83 µM. The CC50 is more than 1000 µM in series [11] and 610 µM in series [12]. The EC50 in [5] turned out to be 2.98 µM; in series [6], 5.32 µM. Besides, the EC90 in [5] was more than 30 µM; in series [6], 5.86 µM. Further, the SI50 in series [5] is on record as 35; in series [6], more than 28. Further, the results for the SI90 in series [5] and in series [6] were less than 4 and more than 26, respectively. Moreover, the “activity against EBV (in words)” value in series [5] is given as “highly active”. In [6], the “activity against BK virus (in words)” value is listed as “highly active”.
As to `N#C[C@@]1(c2ccc3c(N)ncnn23)OC(COP(=O)(O)OP(=O)(O)OP(=O)(O)O)=C[C@H]1O` [ddhREM-TP, ddhRemdesivir], the “incorporation into RNA by SARS-Cov2 RdRp (in words)” value in series [1] is “incorporated into RNA as ATP analogs”. Moreover, the “chain termination of RNA synthesis (in words)” value in [2] is given as “caused termination of RNA synthesis”.
Consider `CCOC(=O)c1ccc(OCCC2CCN(c3ccc(C)nn3)CC2)cc1` [Pirodavir], for which the CC50 with enterovirus-68 (EV-68) [14] (human) is 4.3 µg/mL. Also, the EC50 in the series on enterovirus-68 (EV-68) [15] was found to be 0.039 µg/mL (≈ 0.106 µM).
Consider `O=c1ccn([C@@H]2OC(CO)=C[C@H]2O)c(=O)[nH]1` [AB21649], for which the EC50 is more than 100 µM in the series on HCMV AD169; more than 2000 µM with adenovirus-5 (Ad5); more than 1200 µM in the series with TCRV; more than 1100 µM in series [16] (RVFV, Vero 76 cells, test compounds); more than 1500 µM with SARS-CoV (SARS-CoV, Vero 76 cells, test compounds); more than 2000 µM in the series on SARS-CoV-2. Further, the EC50 in the series on dengue virus-2 (DV-2) was more than 2000 µM; in series [17], more than 1700 µM; in the series on Powassan virus (POWV) (POWV, BHK-21 cells, test compounds), more than 2000 µM; in the series on West Nile virus (WNV), more than 1400 µM; in the series on Yellow fever virus (YFV) (YFV, Huh7 cells, test compounds), more than 2000 µM; in series [18] (VEEV, Vero 76 cells, test compounds), more than 1100 µM. Besides, the EC50 with Zika virus was more than 1500 µM; in the series with influenza A(H1N1) it was 560 µM; in the series on influenza A(H5N1) (influenza A(H5N1), MDCK cells, test compounds) it was 800 µM; with Influenza B, 310 µM; with RSV it was more than 1900 µM; in the series with poliovirus-1 (POV-1) (POV-1, Vero 76 cells, test compounds) it was more than 1000 µM. Moreover, the EC50 with enterovirus-68 (EV-68) [14] (33°C) is more than 390 µM. The CC50 is more than 2000 µM with adenovirus-5 (Ad5); 1200 µM in the series with TCRV; 1100 µM in [16] (setting [19]); 1500 µM in the series on SARS-CoV (setting [19]); more than 2000 µM in the series on SARS-CoV-2; more than 2000 µM in the series with dengue virus-2 (DV-2). The CC50 in series [17] is 1700 µM; with Powassan virus (POWV) (BHK-21 cells without virus, test compounds), more than 2000 µM; in the series on West Nile virus (WNV), 1400 µM; with Yellow fever virus (YFV) (Huh7 cells without virus, test compounds), more than 2000 µM; in series [18] (setting [19]), 1100 µM; with Zika virus, 1500 µM. In addition, the CC50 in the series with influenza A(H1N1) is 1400 µM; in the series with influenza A(H5N1) (MDCK cells without virus, test compounds), 1300 µM; with Influenza B it was 1300 µM; in the series with RSV, 1900 µM; in the series on poliovirus-1 (POV-1) (setting [19]) it was 1000 µM; in the series on enterovirus-68 (EV-68) [14], 390 µM. In addition, in the series with MRC-5 cells, the CC50 was more than 100 µM. Further, the SI was found to be 0 with adenovirus-5 (Ad5) (Ad5, SI = CC50/EC50); 0 with TCRV; 0 in series [16] (RVFV, SI = CC50/EC50); 0 in the series on SARS-CoV (SARS-CoV, SI = CC50/EC50); 0 in the series on SARS-CoV-2 (SARS-CoV-2, SI = CC50/EC50); 0 with dengue virus-2 (DV-2) (DV-2, SI = CC50/EC50). In addition, the SI is 0 in series [17] (JEV, SI = CC50/EC50); 0 in the series on Powassan virus (POWV) (POWV, SI = CC50/EC50); 0 in the series with West Nile virus (WNV) (WNV, SI = CC50/EC50); 0 with Yellow fever virus (YFV) (YFV, SI = CC50/EC50); 0 in [18] (VEEV, SI = CC50/EC50); 0 with Zika virus (Zika, SI = CC50/EC50). For the same molecule, the SI is listed as 2.5 in the series with influenza A(H1N1) (influenza A(H1N1), SI = CC50/EC50); 1.6 with influenza A(H5N1) (influenza A(H5N1), SI = CC50/EC50); 4.2 with Influenza B (Influenza B, SI = CC50/EC50); 0 in the series with RSV (RSV, SI = CC50/EC50); 0 with poliovirus-1 (POV-1) (POV-1, SI = CC50/EC50); 0 in the series with enterovirus-68 (EV-68) [14] (EV-68, SI = CC50/EC50). For the same molecule, the “antiviral activity against Influenza (H1N1) (in words)” value in the series with influenza A(H1N1) is reported as “exhibits antiviral activity”. The “antiviral activity against Influenza (H5N1) (in words)” value with influenza A(H5N1) (Table 11) was “exhibits antiviral activity”. In addition, the “antiviral activity against Influenza B (in words)” value in the series with Influenza B is on record as “exhibits antiviral activity”.

For orientation: half-life means how long it takes for the measured level to halve. The term microsomal CLint denotes the capacity of the preparation to metabolise the compound, expressed as a volume cleared per time. A word on the EC90: it is the concentration at which the effect reaches the 90% level.
